Test results from patent US6815465B1, “Heterocyclic compounds inhibiting angiogenesis” (IVAX International GmbH, priority 1999, dated 2004).

What was measured:
[1] = tested on: ECV 304 endothelial cells; experiment: Examination of endothelial capillary formation; format: cell-based; conditions: for selectivity index: inhibits the capillary formation better than the cell proliferation, in relation to the borrelidin: ECV 304, from ratios of concentrations inhibiting cell proliferation in 50% and capillary formation, relative to borrelidin
Description: Basal membrane protein gel prepared from murine EHS tumor, which induces capillary formation, was put onto ECV 304 endothelial cells. The treatment with the borrelidin and the novel borrelidin derivatives of general formula (I) according to the invention was carried out in the same way as in case of the examination of cell proliferation. The extent by which the cells take part in the capillary formation was examined microscopically and by the aid of a morphometrical program, and the thus-obtained data were expressed in percent of the untreated control.
Namely, it has been stated that, relating to borrelidin, the cell-proliferation-inhibiting effect of the novel derivatives of general formula (I) definitely decreases whereas the capillary-formation-inhibiting effect changes only in a small degree or not at all. The relative degree of selectivity was determined for each compound by […] the ratios of the active agent concentrations that inhibit the cell proliferation in 50% and which inhibit the capillary formation.

[2] = tested on: Lewis lung adenocarcinoma; experiment: Lewis lung adenocarcinoma metastasis model; format: in vivo; conditions: for inhibition of the increase of micrometastases: one fifth of the toxic dose
[3] = tested on: cell lines WiDr of human colon cancer; conditions: cited from earlier work
[4] = tested on: PC-3 of human prostate cancer; conditions: cited from earlier work
[5] = tested on: cells forming capillary tubules; conditions: cited from earlier work
[6] = in vivo; cited from earlier work
[7] = tested on: mouse colon adenocarcinoma cells transplanted into the spleen; experiment: Colon 38 spleen-liver metastasis model; format: in vivo; conditions: subtoxic administration
Description: 2. In a colon 38 spleen-liver model [Dong, Z. et al., J. Natl. Cancer Inst.

C[C@@H]1C[C@H](C)C[C@H](C)[C@@H](O)CC(=O)O[C@H]([C@@H]2CCC[C@H]2C(=O)O)C/C=C/C=C(/C#N)[C@H](O)[C@@H](C)C1 [borrelidin, 2′-(7-cyano-8,16-dihydroxy-9,11,13,15-tetramethyl-18-oxo-oxacyclooctadeca-4,6-dien-2-yl)-cyclopentane-1′-carboxylic acid]
difference in sensitivity of proliferation and capillary formation by the endothelial cells, in favour of capillary formation ([1]; endothelial cells): about a five fold difference | inhibition of the propagation of metastatic nodules formed after removing the primary tumour in lung ([2]; Lewis lung adenocarcinoma model): inhibited in a very small degree | effectiveness against cell line [3]: effective | effectiveness against cell line [4]: effective | angiogenesis-inhibiting effect [5]: induces the apoptosis of the cells forming capillary tubules | LD50 value [6]: medium

CC1CC(C)CC(C)C(O)C(C#N)=CC=CCC(C2CCCC2C(=O)OCCc2ccccn2)OC(=O)CC(O)C(C)C1 (stereo not drawn) [Example 2, Borrelidin-2-(2-pyridyl)-ethyl ester]
selectivity index: inhibits the capillary formation better than the cell proliferation, in relation to the borrelidin [1]: 7.5 times

CC1CC(C)CC(C)C(O)CC(=O)OC(C2CCCC2C(=O)NCc2cccnc2)C(C#N)=CC=CCC(O)C(C)C1 (stereo not drawn) [Example 15, Borrelidin-3-picolylamide]
inhibition of the increase of micrometastases ([2]; intraperitoneal administration): inhibited very considerably | inhibition of the increase of micrometastases ([2]; per os administration): inhibited very considerably | metastasis-forming ability of mouse colon adenocarcinoma cells transplanted into the spleen [7]: considerably decreased

CC1CC(C)CC(C)C(O)C(C#N)=CC=CCC(C2CCCC2C(=O)NCCN2CCOCC2)OC(=O)CC(O)C(C)C1 (stereo not drawn) [Example 4, Borrelidin 2-morpholinoethyl amide]
selectivity index: inhibits the capillary formation better than the cell proliferation, in relation to the borrelidin [1]: 6 times

C[C@@H]1C[C@H](C)C[C@H](C)[C@@H](O)CC(=O)O[C@H]([C@@H]2CCC[C@H]2C(=O)OCCN2CCOCC2)C/C=C/C=C(/C#N)[C@H](O)[C@@H](C)C1 [Example 1, Borrelidin-2-morpholinoethyl ester]
selectivity index: inhibits the capillary formation better than the cell proliferation, in relation to the borrelidin [1]: 60 times
